From patent publication US20260250290A1 (BRISTOL-MYERS SQUIBB COMPANY, priority 2023, published 2026)
Structures can show the parent of a compound that is named as a salt.

Molecular target: T1, full length SGK1 (Homo sapiens, UniProt O00141)
T1 construct: 125 μM full length SGK1 (Life Technologies Part #PR7358A); purchased Life Technologies PR7358A
T1 sequence (O00141 1-431): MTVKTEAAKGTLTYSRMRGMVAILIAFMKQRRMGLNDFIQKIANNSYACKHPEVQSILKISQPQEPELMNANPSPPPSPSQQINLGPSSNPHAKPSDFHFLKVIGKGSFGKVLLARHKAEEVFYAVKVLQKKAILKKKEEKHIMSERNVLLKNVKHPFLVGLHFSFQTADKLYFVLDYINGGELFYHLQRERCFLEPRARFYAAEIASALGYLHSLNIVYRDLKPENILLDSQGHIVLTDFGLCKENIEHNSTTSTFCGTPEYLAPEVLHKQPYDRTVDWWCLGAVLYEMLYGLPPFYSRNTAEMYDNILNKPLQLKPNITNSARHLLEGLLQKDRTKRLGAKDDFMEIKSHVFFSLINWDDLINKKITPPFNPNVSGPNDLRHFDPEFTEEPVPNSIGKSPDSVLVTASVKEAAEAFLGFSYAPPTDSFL
Assay: SGK1 inhibition Assay A (Caliper LabChip electrophoretic separation of fluorescent peptide substrate and phosphorylated product)
Format: biochemical
Settings: Assay A; 20 μM ATP, 40 min incubation; read-out: SGK1 IC50

Compound	IC50 [nM]
CC(=O)N1CC=C(c2cc(N3CCC[C@@H](NC(=O)c4[nH]c5ccccc5c4OCCN(C)C)C3)c3c(N)ncnn23)C1 [Example 364, (R)—N-(1-(7-(1-acetyl-2,5-dihydro-1H-pyrrol-3-yl)-4-aminopyrrolo[2,1-f][1,2,4]triazin-5-yl)piperidin-3-yl)-3-(2-(dimethylamino)ethoxy)-1H-indole-2-carboxamide]	12
CC(=O)N1CC=C(c2cc(OCCN(C)C)c(C(=O)N[C@@H]3CCCN(c4cc(C5=CCN(C(C)=O)C5)n5ncnc(N)c45)C3)s2)C1 [Example 910, (R)-5-(1-acetyl-2,5-dihydro-1H-pyrrol-3-yl)-N-(1-(7-(1-acetyl-2,5-dihydro-1H-pyrrol-3-yl)-4-aminopyrrolo[2,1-f][1,2,4]triazin-5-yl)piperidin-3-yl)-3-(2-(dimethylamino)ethoxy)thiophene-2-carboxamide]	59
COC(=O)NCCOc1cc(C(F)F)sc1C(=O)N[C@@H]1CCCN(c2cc(-c3cncnc3)n3ncnc(N)c23)C1 [Example 429, methyl (R)-(2-((2-((1-(4-amino-7-(pyrimidin-5-yl)pyrrolo[2,1-f][1,2,4]triazin-5-yl)piperidin-3-yl)carbamoyl)-5-(difluoromethyl)thiophen-3-yl)oxy)ethyl)carbamate]	60
CS(=O)(=O)c1ccc(-c2cc(N3CC[C@H](F)[C@@H](NC(=O)c4ccc(Cl)s4)C3)c3c(N)ncnn23)cc1 (relative stereo) [Example 144, rel-N-((3R,4R)-1-(4-amino-7-(4-(methylsulfonyl)phenyl)pyrrolo[2,1-f][1,2,4]triazin-5-yl)-4-fluoropiperidin-3-yl)-5-chlorothiophene-2-carboxamide, TFA]	24
COC(=O)N1CC=C(c2cc(N3CCC[C@@H](NC(=O)c4sc(C(F)F)cc4OCC4CCNCC4)C3)c3c(N)ncnn23)C1 [Example 351, methyl (R)-3-(4-amino-5-(3-(5-(difluoromethyl)-3-(piperidin-4-yl-methoxy)thiophene-2-carboxamido)piperidin-1-yl)pyrrolo[2,1-f][1,2,4]triazin-7-yl)-2,5-dihydro-1H-pyrrole-1-carboxylate]	8
Cc1ccc(C(=O)N(C)[C@@H]2CCCN(c3cc(-c4ccc(S(C)(=O)=O)cc4)n4ncnc(N)c34)C2)s1 [Example 122, (R)—N-(1-(4-amino-7-(4-(methylsulfonyl)phenyl)pyrrolo[2,1-f][1,2,4]triazin-5-yl)piperidin-3-yl)-N,5-dimethylthiophene-2-carboxamide]	29
Nc1ncnn2c(-c3ccnc(F)c3)cc(N3CCC[C@@H](NC(=O)c4csc(Cl)c4)C3)c12 [Example 161, (R)-N-(1-(4-amino-7-(2-fluoropyridin-4-yl)pyrrolo[2,1-f][1,2,4]triazin-5-yl)piperidin-3-yl)-5-chlorothiophone-3-carboxamide]	2
CC(=O)N1CC=C(c2cc(N3CCC[C@@H](NC(=O)c4sc(C)nc4OC4CCN(C(C)C)CC4)C3)c3c(N)ncnn23)C1 [Example 358, (R)-N-(1-(7-(1-acetyl-2,5-dihydro-1H-pyrrol-3-yl)-4-aminopyrrolo[2,1-f][1,2,4]triazin-5-yl)piperidin-3-yl)-4-((1-isopropylpiperidin-4-yl)oxy)-2-methylthiazole-5-carboxamide]	29
Cc1cc(-c2cc(N3CCC[C@@H](NC(=O)c4sc(Cl)cc4OCCN(C)C)C3)c3c(N)ncnn23)cn(C(C)C)c1=O [Example 693, (R)—N-(1-(4-amino-7-(1-isopropyl-5-methyl-6-oxo-1,6-dihydropyridin-3-yl)pyrrolo[2,1-f][1,2,4]triazin-5-yl)piperidin-3-yl)-5-chloro-3-(2-(dimethylamino)ethoxy)thiophene-2-carboxamide]	69
COc1cc(C(=O)N[C@@H]2CCCN(c3cc(-c4ccc(S(C)(=O)=O)cc4)n4ncnc(N)c34)C2)ccn1 [Example 46, (R)-N-(1-(4-amino-7-(4-(methylsulfonyl)phenyl)pyrrolo[2,1-f][1,2,4]triazin-5-yl)piperidin-3-yl)-2-methoxyisonicotinamide, TFA]	10

The next lines start with the values.

IC50 [nM]	Compound
12	Nc1ncnn2c(C3=CCN(C(=O)C4CCCS(=O)(=O)C4)C3)cc(N3CCC[C@@H](NC(=O)c4ccc(Cl)s4)C3)c12 (stereo partly drawn) [Example 904, N-((3R)-1-(4-amino-7-(1-(1,1-dioxidotetrahydro-2H-thiopyran-3-carbonyl)-2,5-dihydro-1H-pyrrol-3-yl)pyrrolo[2,1-f][1,2,4]triazin-5-y1)piperidin-3-y1)-5-chlorothiophene-2-carboxamide]
3	CC(=O)N1CC=C(c2cc(N3CCC[C@@H](NC(=O)c4sc(Cl)cc4OC4CC5CC4CN5)C3)c3c(N)ncnn23)C1 (single isomer, unassigned) [Example 607]
264	CC(=O)N1CC=C(c2cc(N3CCC[C@@H](NC(=O)N4CCCC4)C3)c3c(N)ncnn23)C1 [Example 876, (R)-N-(1-(7-(1-acctyl-2,5-dihydro-1H-pyrrol-3-yl)-4-aminopyrrolo[2,1-f][1,2,4]triazin-5-yl)piperidin-3-yl)pyrrolidine-1-carboxamide]
10	CC(=O)N1CC=C(c2cc(N3CCC[C@@H](NC(=O)c4ccc(C)s4)C3)c3c(N)ncnn23)C1 [Example 255, (R)—N-(1-(7-(1-acetyl-2,5-dihydro-1H-pyrrol-3-yl)-4-aminopyrrolo[2,1-f][1,2,4]triazin-5-yl)piperidin-3-yl)-5-methylthiophene-2-carboxamide]
8	Nc1ncnn2c(-c3ccc(OCC(F)F)nc3)cc(N3CCC[C@@H](NC(=O)c4ccc(Cl)s4)C3)c12 [Example 534, (R)-N-(1-(4-amino-7-(6-(2,2-difluoroethoxy)pyridin-3-yl)pyrrolo[2,1-f][1,2,4]triazin-5-yl)piperidin-3-yl)-5-chlorothiophene-2-carboxamide]
8	Nc1ncnn2c(C3=CCN(C(=O)[C@@H]4CCCO4)C3)cc(N3CCC[C@@H](NC(=O)c4ccc(Cl)s4)C3)c12 [Example 903, N-((R)-1-(4-amino-7-(1-((S)-tetrahydrofuran-2-carbony1)-2,5-dihydro-1H-pyrrol-3-yl)pyrrolo[2,1-f][1,2,4]triazin-5-yl)piperidin-3-y1)-5-chlorothiophene-2-carboxamide]
68	CC(=O)N1CC=C(c2cc(N3CCC[C@@H](NC(=O)c4ccnc(OCCN5CCOCC5)c4)C3)c3c(N)ncnn23)C1 [Example 707, (R)-N-(1-(7-(1-acetyl-2,5-dihydro-1H-pyrrol-3-yl)-4-aminopyrrolo[2,1-f][1,2,4]triazin-5-yl)piperidin-3-yl)-2-(2-morpholinoethoxy) isonicotinamide]
53	COC(=O)N1CC=C(c2cc(N3CCC[C@@H](NC(=O)c4n[nH]c5ccc(N)cc45)C3)c3c(N)ncnn23)C1 [Example 689, methyl (R)-3-(4-amino-5-(3-(5-amino-1H-indazole-3-carboxamido)piperidin-1-yl)pyrrolo[2,1-f][1,2,4]triazin-7-yl)-2,5-dihydro-1H-pyrrole-1-carboxylate]
90	CC(=O)N1CC=C(c2cc(N3CCC[C@@H](NC(=O)c4ccc(-c5cncnc5)s4)C3)c3c(N)ncnn23)C1 [Example 548, (R)-N-(1-(7-(1-acetyl-2,5-dihydro-1H-pyrrol-3-yl)-4-aminopyrrolo[2,1-f][1,2,4]triazin-5-yl)piperidin-3-yl)-5-(pyrimidin-5-yl)thiophene-2-carboxamide]
